# Results published in US20150060744A1, “[…] BLUE DYE COMPOUND, BLUE RESIN COMPOSITION FOR COLOR FILTER CONTAINING SAME AND COLOR FILTER USING SAME” (KYUNG SYNTHETIC CO., LTD., priority 2012, published 2015).
# Test: Solubility of blue dye compounds in PGMEA and cyclohexanone
# Type: physicochemical
# Conditions: for Solubility in PGMEA: solvent PGMEA (propylene glycol monomethyl ether acetate); for Solubility in cyclohexanone: solvent cyclohexanone
SMILES,Solubility in PGMEA,Solubility in cyclohexanone
C=C(C)C(=O)OCCN(CC)c1ccc(C(=C2C=CC(=[N+](CC)CCOC(=O)C(=C)C)C=C2)c2ccc(Nc3ccccc3)c3ccccc23)cc1 [Comp. Ex. 1],<1%,<3%
C=C(C)C(=O)OCCN(CC)c1ccc(C(=C2C=CC(=[N+](CC)CCOC(=O)C(=C)C)C=C2)c2ccc(Nc3ccccc3)c3ccccc23)cc1 [Syn. Ex. 1],>10%,>10%
CN(C)c1ccc(C(=C2C=CC(=[N+](C)C)C=C2)c2ccc(Nc3ccccc3)c3ccccc23)cc1 [compound 2],<1%,<3%
